Experimental data reported in ChEMBL document CHEMBL5230155, “Recent contributions of quinolines to antimalarial and anticancer drug discovery research” (Eur J Med Chem, 2021).
pEC50, pIC50, pKd: −log10 of the molar value.

Assays:
[1] = target: Cathepsin B (Homo sapiens) (UniProt P07858); assay: Inhibition of human cathepsin B exopeptidase activity at 50 uM relative to control
[2] = target: Hepatocyte growth factor receptor (Homo sapiens, UniProt P08581); assay: Inhibition of c-Met (unknown origin)
Plasmodium falciparum [3] = assay: Antimalarial activity against Plasmodium falciparum 3D7; type: functional, organism-based
Plasmodium falciparum [4] = assay: Antimalarial activity against multidrug resistant Plasmodium falciparum Dd2; type: functional, organism-based
Plasmodium falciparum [5] = assay: Antimalarial activity against multidrug resistant Plasmodium falciparum K1; type: functional, organism-based
[6] = Inhibition of PI3K (unknown origin); design: species or system Homo sapiens
HeLa = assay: Antiproliferative activity against human HeLa cells; type: functional, cell-based
MCF7 = assay: Antiproliferative activity against human MCF7 cells; type: functional, cell-based; conditions: Homo sapiens, MCF7
DLD-1 = assay: Antiproliferative activity against human DLD-1 cells; type: functional, cell-based
HCT-116 = assay: Cytotoxicity against human HCT-116 cells; type: functional, cell-based
RPMI-8226 [7] = assay: Cytotoxicity against human RPMI-8226 cells; type: functional, cell-based
RPMI-8226 [8] = assay: Induction of apoptosis in human RPMI-8226 cells assessed as fold increase in cytochrome c level; type: functional
RPMI-8226 [9] = assay: Induction of apoptosis in human RPMI-8226 cells assessed as fold increase in caspase-3 level; type: functional
[10] = target: T1, Tyrosine-protein kinase receptor UFO (Homo sapiens, UniProt P30530); assay: Inhibition of AXL (unknown origin)
T1 sequence (P30530 whole entry): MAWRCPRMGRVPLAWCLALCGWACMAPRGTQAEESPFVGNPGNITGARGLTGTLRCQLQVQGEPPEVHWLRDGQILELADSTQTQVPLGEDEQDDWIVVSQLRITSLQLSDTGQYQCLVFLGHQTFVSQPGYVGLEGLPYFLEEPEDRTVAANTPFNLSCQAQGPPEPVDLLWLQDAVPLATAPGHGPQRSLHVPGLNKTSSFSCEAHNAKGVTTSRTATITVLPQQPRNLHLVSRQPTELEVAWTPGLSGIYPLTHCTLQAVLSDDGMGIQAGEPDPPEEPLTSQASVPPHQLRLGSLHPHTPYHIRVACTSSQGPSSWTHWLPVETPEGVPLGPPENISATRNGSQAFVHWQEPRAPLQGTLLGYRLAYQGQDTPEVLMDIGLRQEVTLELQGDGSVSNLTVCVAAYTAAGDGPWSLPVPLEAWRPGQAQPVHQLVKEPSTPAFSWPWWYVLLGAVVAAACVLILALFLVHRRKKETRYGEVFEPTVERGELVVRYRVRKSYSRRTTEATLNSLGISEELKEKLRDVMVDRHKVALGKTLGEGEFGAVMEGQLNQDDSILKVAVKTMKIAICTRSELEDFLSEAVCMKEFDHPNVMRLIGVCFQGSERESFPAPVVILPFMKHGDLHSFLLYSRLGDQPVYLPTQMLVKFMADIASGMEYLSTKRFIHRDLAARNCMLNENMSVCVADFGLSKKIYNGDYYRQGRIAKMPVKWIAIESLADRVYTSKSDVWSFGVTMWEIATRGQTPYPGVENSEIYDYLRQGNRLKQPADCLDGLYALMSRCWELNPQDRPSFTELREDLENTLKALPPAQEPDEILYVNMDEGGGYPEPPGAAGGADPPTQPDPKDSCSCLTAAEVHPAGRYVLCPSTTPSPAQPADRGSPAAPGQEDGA

[11] = Binding affinity to human nRNP
Plasmodium falciparum [12] = tested on: Plasmodium falciparum
Description: Antimalarial activity against CQ-sensitive Plasmodium falciparum NF54

PC-3 = assay: Antiproliferative activity against human PC-3 cells; type: functional, cell-based
[13] = target: Lysine-specific demethylase 6B (Homo sapiens) (UniProt O15054); assay: Inhibition of JMJD3 (unknown origin) at 25 uM relative to control
Plasmodium falciparum [14] = assay: Antimalarial activity against CQ-sensitive Plasmodium falciparum 3D7; type: functional, organism-based
[15] = Cytotoxicity against african green monkey Vero cells; type: toxicity, cell-based; conditions: African green monkey (Chlorocebus sabaeus)
MDA-MB-453 = assay: Antiproliferative activity against human MDA-MB-453 cells; type: functional, cell-based
SNU-423 = assay: Antiproliferative activity against human SNU-423 cells; type: functional, cell-based
RT-112 = assay: Antiproliferative activity against human RT-112 cells; type: functional, cell-based

Hepatocyte growth factor receptor, sequence (P08581 whole entry): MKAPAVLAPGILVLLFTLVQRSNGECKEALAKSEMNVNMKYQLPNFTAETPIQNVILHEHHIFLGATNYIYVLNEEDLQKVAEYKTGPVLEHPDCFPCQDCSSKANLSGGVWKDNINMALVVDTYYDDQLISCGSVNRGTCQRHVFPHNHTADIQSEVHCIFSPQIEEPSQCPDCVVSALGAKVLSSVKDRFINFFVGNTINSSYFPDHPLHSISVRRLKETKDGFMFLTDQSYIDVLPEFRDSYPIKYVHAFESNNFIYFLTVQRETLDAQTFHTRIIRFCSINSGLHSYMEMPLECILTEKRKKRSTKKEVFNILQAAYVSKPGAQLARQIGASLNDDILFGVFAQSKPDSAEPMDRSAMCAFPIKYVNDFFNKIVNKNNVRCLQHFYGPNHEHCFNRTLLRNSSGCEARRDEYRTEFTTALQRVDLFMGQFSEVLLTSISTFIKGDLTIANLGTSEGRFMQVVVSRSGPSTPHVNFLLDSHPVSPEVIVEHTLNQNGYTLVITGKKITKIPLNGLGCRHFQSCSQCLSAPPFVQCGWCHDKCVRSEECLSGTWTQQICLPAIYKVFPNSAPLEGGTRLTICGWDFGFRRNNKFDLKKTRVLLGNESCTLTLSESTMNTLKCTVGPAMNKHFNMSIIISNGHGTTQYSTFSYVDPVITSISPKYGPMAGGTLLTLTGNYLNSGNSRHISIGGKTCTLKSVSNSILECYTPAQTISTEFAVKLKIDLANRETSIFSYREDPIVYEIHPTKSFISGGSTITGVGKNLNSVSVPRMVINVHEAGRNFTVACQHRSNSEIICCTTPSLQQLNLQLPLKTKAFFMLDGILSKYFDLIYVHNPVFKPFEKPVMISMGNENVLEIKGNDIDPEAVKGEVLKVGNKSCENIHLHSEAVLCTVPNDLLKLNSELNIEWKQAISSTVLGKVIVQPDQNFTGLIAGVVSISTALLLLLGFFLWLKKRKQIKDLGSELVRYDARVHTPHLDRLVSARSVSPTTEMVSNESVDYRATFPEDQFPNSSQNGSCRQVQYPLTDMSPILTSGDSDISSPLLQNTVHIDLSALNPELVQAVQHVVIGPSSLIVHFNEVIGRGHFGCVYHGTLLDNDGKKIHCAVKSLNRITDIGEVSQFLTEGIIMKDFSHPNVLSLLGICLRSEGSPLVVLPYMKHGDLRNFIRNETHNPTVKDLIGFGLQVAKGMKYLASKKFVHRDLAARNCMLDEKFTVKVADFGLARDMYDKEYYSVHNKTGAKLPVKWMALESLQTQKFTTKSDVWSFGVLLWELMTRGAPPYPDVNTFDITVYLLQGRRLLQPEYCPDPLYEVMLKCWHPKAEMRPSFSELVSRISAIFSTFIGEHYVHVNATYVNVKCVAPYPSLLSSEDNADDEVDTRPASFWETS
Lysine-specific demethylase 6B (Homo sapiens), sequence (O15054 whole entry): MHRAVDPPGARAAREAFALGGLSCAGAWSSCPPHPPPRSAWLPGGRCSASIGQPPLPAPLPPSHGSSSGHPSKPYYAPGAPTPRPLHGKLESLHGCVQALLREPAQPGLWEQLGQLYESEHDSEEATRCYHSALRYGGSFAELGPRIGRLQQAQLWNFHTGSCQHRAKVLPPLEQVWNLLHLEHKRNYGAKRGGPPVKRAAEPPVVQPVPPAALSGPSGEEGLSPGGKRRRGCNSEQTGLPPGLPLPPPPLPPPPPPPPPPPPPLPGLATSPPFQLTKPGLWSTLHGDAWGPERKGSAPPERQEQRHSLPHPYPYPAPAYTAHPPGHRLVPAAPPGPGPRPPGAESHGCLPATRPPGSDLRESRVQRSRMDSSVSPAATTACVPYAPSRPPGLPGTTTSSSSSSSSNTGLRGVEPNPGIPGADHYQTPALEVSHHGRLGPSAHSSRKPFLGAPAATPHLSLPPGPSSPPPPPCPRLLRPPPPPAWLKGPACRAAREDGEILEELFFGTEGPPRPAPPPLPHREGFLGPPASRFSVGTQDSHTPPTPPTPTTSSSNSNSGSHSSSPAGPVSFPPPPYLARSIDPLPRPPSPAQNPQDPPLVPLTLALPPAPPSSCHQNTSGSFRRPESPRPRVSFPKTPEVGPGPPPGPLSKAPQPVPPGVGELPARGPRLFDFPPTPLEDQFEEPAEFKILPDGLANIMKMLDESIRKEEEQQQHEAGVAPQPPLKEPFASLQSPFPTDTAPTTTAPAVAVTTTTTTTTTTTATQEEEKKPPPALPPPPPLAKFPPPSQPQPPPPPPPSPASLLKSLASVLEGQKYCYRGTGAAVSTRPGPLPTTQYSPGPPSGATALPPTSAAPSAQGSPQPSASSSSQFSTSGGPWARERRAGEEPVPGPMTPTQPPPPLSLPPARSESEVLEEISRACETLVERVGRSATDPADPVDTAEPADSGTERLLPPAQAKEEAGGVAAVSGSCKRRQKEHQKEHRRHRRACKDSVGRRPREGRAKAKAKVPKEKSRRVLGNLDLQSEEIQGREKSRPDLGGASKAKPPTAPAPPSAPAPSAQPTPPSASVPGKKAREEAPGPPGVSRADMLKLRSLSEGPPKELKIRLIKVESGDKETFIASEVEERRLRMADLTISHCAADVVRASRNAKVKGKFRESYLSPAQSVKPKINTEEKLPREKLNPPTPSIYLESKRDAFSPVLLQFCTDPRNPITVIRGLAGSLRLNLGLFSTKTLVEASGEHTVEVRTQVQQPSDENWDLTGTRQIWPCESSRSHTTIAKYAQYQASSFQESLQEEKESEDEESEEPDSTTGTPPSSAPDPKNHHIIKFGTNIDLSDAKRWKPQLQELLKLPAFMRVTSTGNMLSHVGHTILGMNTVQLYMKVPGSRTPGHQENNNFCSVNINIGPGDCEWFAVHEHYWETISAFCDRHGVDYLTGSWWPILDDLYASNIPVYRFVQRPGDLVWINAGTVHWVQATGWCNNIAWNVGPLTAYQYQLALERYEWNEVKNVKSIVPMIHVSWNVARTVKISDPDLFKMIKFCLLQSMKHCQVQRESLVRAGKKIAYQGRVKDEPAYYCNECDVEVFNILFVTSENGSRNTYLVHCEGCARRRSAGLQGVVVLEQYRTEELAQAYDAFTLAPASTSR

Work on `COCCCNC(=O)c1cc([N+](=O)[O-])c2cccnc2c1O` yielded an inhibition [1] of 19.4%.
With `COc1cc2nccc(Oc3ccc(NC(=O)C4(C(=O)Nc5c(F)cc(F)cc5F)CC4)cc3)c2cc1Oc1ccc(N)cn1` the pIC50 [2] was 7.72.
`[2H]c1ccc2cc(C(F)(F)c3nnc4ccc(-c5cnn(C)c5)nn34)ccc2n1` showed a pIC50 [2] of 8.59.
`C#CCCCN(CCNc1ccnc2cc(Cl)ccc12)C(=O)CCC(=O)O[C@@H]1O[C@@H]2O[C@@]3(C)CC[C@H]4[C@H](C)CCC([C@H]1C)[C@@]24OO3` (some centres undefined) gave a pEC50 (Plasmodium falciparum [3]) of 9.11, a pEC50 (Plasmodium falciparum [4]) of 9.11 and a pEC50 (Plasmodium falciparum [5]) of 9.11.
With `C[C@@H]1CC[C@H]2[C@@H](C)C(=O)O[C@@H]3O[C@@]4(C)CC[C@@H]1[C@]32OO4` [ARTEMISININ] the pEC50 (Plasmodium falciparum [3]) was 8.27, the pEC50 (Plasmodium falciparum [4]) was 8.27 and the pEC50 (Plasmodium falciparum [5]) was 8.27.
Work on `COc1cc2nccc(Oc3ccc(NC(=O)C4(C(=O)Nc5ccc(F)cc5)CC4)cc3)c2cc1O` yielded a pIC50 [2] of 7.72.
In the case of `C#CCCCC(C(=O)NCCOC(=O)CCC(=O)O[C@@H]1O[C@@H]2O[C@@]3(C)CC[C@H]4[C@H](C)CCC([C@H]1C)[C@@]24OO3)c1ccnc2cc(Cl)ccc12` (some centres undefined), the pEC50 (Plasmodium falciparum [3]) was 9.11, the pEC50 (Plasmodium falciparum [4]) was 9.11 and the pEC50 (Plasmodium falciparum [5]) was 9.11.
With `O=C(O)c1cc(C#Cc2c(C3CC3)nc3ccccc3c2-c2ccc(F)cc2)ccc1Br` the pIC50 [6] was 6.35.
Work on `Cn1cc(-c2ccc3nnc(C(F)(F)c4ccc5ncccc5c4)n3n2)cn1` [JNJ-38877605] yielded a pIC50 [2] of 8.77.
For `COc1ccc2nc(Cl)c(C3CC(c4ccc(C)cc4)=NN3c3nc(-c4ccc(C)cc4)cs3)cc2c1` (centres undefined), the pIC50 (HeLa) was 7.42, the pIC50 (MCF7) was 7.42 and the pIC50 (DLD-1) was 7.42.
Work on `O=C(NCc1ccccc1)c1cc([N+](=O)[O-])c2cccnc2c1O` yielded an inhibition [1] of 19.4%.
For `COc1ccc2nc(O)c(/C=C/C(=O)c3ccc(C)cc3)cc2c1`, the pIC50 (HeLa) was 7.42, the pIC50 (MCF7) was 7.42 and the pIC50 (DLD-1) was 7.42.
For `COc1nc2ccccc2cc1/C=[N+](\[O-])c1ccccc1`, the pIC50 (HCT-116) was 6.35, the pIC50 (RPMI-8226 [7]) was 6.35 and the “fold change (FC)” value (RPMI-8226 [8]) was 4. For the same compound, the “fold change (FC)” value (RPMI-8226 [9]) was 12.
With `COc1cc2c(Oc3ccc(NS(=O)(=O)c4cc(F)ccc4F)cc3F)ccnc2cc1OCCCN1CCCC(C)C1` (centres undefined) the pIC50 [10] was 7.68.
In the case of `COc1ccc2nc(Cl)c(C3CC(c4ccc(C)cc4)=NN3c3nc(C)c(/N=N/c4ccccc4)s3)cc2c1` (centres undefined), the pIC50 (HeLa) was 7.42, the pIC50 (MCF7) was 7.42 and the pIC50 (DLD-1) was 7.42.
`O=C(/C=C/c1cc(N2CCOCC2)c2cc(O)ccc2n1)c1ccc(Cl)cc1` gave a pKd [11] of 4.70.
With `Clc1ccc2c(N3CC(CN4CCCC4)N=N3)ccnc2c1` (centres undefined) the pIC50 (Plasmodium falciparum [12]) was 6.69.
Compound `CC(O)(CS(=O)(=O)c1ccc(F)cc1)C(=O)Nc1ccc(C#N)c(C(F)(F)F)c1` (centres undefined) [BICALUTAMIDE] has a pIC50 (PC-3) of 5.89.
With `COc1ncc(-c2cnc3c(C(=O)O)ccc(C(=O)O)c3c2)c(OC)n1` the inhibition [13] was 90%.
For `CSc1nc2ccccc2cc1/C=[N+](\[O-])c1ccccc1`, the pIC50 (HCT-116) was 6.35, the pIC50 (RPMI-8226 [7]) was 6.35 and the “fold change (FC)” value (RPMI-8226 [8]) was 4. The “fold change (FC)” value (RPMI-8226 [9]) was 12.
With `CC(=O)c1ccc(C#Cc2c(C3CC3)nc3ccccc3c2-c2ccc(F)cc2)cc1` the pIC50 [6] was 6.35.
Work on `Clc1ccc2c(N3CC(CN4CCOCC4)N=N3)ccnc2c1` (centres undefined) yielded a pIC50 (Plasmodium falciparum [12]) of 5.34.
In the case of `O=C(Cn1cc(-c2ccccc2)nn1)NCCCNc1ccnc2cc(Cl)ccc12`, the pIC50 (Plasmodium falciparum [14]) was 7.41 and the pIC50 [15] was under 5.30.
`Clc1ccc2c(N3CC(CN4CCCCC4)N=N3)ccnc2c1` (centres undefined) [listing 1 of 2 here] gave a pIC50 (Plasmodium falciparum [12]) of 5.34.
Work on `COc1cc(N(CCCSC(=S)N2CCN(CCO)CC2)S(=O)(=O)c2cccc3cccnc23)cc(OC)c1OC` yielded a pIC50 (MDA-MB-453) of 6.15, a pIC50 (SNU-423) of 6.15 and a pIC50 (RT-112) of 6.15.
Compound `Clc1ccc2c(N3CC(CN4CCCCC4)N=N3)ccnc2c1` (centres undefined) [listing 2 of 2 here] has a pIC50 (Plasmodium falciparum [12]) of 6.69.
Work on `COc1cc2c(Oc3ccc(NS(=O)(=O)c4ccccc4OC(F)(F)F)cc3F)ccnc2cc1OCCCN1CCN(C)CC1` yielded a pIC50 [10] of 7.57.
With `O=C(NCCO)c1cc([N+](=O)[O-])c2cccnc2c1O` the inhibition [1] was 19.4%.
